The conditions of data set [1]: dog, in vivo.
For data set [2] the following is noted: rat, in vivo.
The conditions of data set [3]: guinea pig, in vivo.
The subject of data set [4] is calcitonin gene-related peptide (CGRP). The conditions noted are these: rat, in vivo.
Procedure: (§1) Lumbar intrathecal injections--rats: Rats (250-350 gm) were prepared with chronic intrathecal catheters placed in the lumbar intrathecal space. They received intrathecal administration of 15 μl of 25% CDEX. […] At 7 days, the levels of neuropeptides substance P and calcitonin gene-related peptide (CGRP) were measured after extraction of tissue, using radioimmunoassays.
Data set [5] relates to substance P. The conditions noted are these: rat, in vivo.
Procedure: as §1
For data set [6] the following is noted: oral administration; cited from earlier work.

With 2-hydroxypropyl-β-cyclodextrin [CDEX], in data set [1], the bladder function entry is recorded as “no effect”, the heart rate result is on record as “no effect”, the skin twitch response entry is given as “no effect” and the toxicity entry is given as “lack of toxicity”. Moreover, in data set [2], the EEG activity entry is reported as “no effect” and the general motor behavior result is “no effect”. Moreover, in data set [3], the “acute behavioral signs of agitation (irritation)” value is on record as “no acute behavioral signs of agitation”; the “motor function (placing, stepping and righting reflexes or ambulatory tests)” value is given as “no changes”; the urine staining result is recorded as “No evidence of urine staining”.

Consider `C[S+](C)[O-]` [dimethyl sulfoxide], for which the “tissue level of CGRP” value in data set [4] is given as “significant reduction”. Further, the “tissue level of substance P” value in data set [5] is recorded as “significant reduction”.

Consider `CS(=O)(=O)OCCCCOS(C)(=O)=O` [Busulfan, busulfan], for which the bone marrow depression result in data set [6] was “severe bone marrow depression”.

Values taken from US5180716A, “Cyclodextrin complexes for neuraxial administration of drugs” (The Regents of the University of California, priority 1990, dated 1993).
